Experimental data: US12583818B2 (DAEGU-GYEONGBUK MEDICAL INNOVATION FOUNDATION, priority 2020, dated 2026)
Where two headings read alike, the source gives them in different places.

Key:
[1] = test system: A2780-SP cells (ovarian cancer stem cells); assay: Sphere cell viability of A2780-SP cells (Cell-titer Glo); type: cell-based
Method: (§1) In order to confirm the inhibitory effect of the compound represented by formula 1 according to the present invention on the growth of MCF7, MCF7-SP, A2780 or A2780-SP cells, the following experiment was performed, and the results are shown in Tables 4 and 5 below.
On the other hand, A2780-SP cells (ovarian cancer stem cells) were plated in an Ultra-Low Attachment round bottom 96-well plate (corning) at the density of 1,500 viable cells per well, and cultured in cancer stem cell medium. The cancer stem cell medium is composed of the neurobasal medium supplemented with 20 ng/ml of bFGF, 10 ng/ml of EGF, […] of amphotericin B, HEPES, Glutamax and B27.
On the next day of culture, the cells were treated with the compound of Examples 57, and 69 to 144, followed by culture for 8 days. The medium containing the compound was added thereto once again on the 4th day. Sphere cell viability was evaluated by Cell-titer Glo (Promega, WC, USA), and luciferase activity was detected using a Tecan plate reader (Biocompare, USA).

[2] = test system: A2780 cells (ovarian cancer cells); assay: Cell viability of A2780 cells (Cell-titer Glo); type: cell-based; settings: Homo sapiens
Method: as §1
In addition, A2780 cells (ovarian cancer cells) were plated in a 96-well plate at the density of 3000 viable cells per well, and cultured in RPMI-1640 medium supplemented with 10% FBS and 1% penicillin/streptomycin.
On the next day of culture, the cells were treated with the compound of Examples 57, and 69 to 144, followed by culture for 3 days. Cell viability was evaluated by Cell-titer Glo (Promega, WC, USA), and luciferase activity was detected using a Tecan plate reader (Biocompare, USA).

Pin1 = biological target: T1, Pin1 (Homo sapiens, UniProt Q13526); assay: Evaluation of Pin1 enzyme inhibitory activity (Sensolyte Green Pin1 assay kit); type: biochemical
T1 construct: purchased Anaspec
Method in brief: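 Pin1 activity was measured with a fluorogenic kit assay (Sensolyte Green) using substrate prepared at 1 μM and protein at 50 μg/ml, both pre-mix concentrations. Compound working solutions were 100, 10, 1 or 0.1 μM, and reactions ran 2 h at room temperature in the dark, read at 490/520 nm. Inhibition was graded A–D by concentration.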

[3] = 192 h, sphere cell viability, culture for 8 days, read-out: A2780-SP
[4] = Table 5, read-out: the concentration (second list of b710, cell line not named; matches A2780-SP column)
[5] = 72 h, cell viability, culture for 3 days, read-out: A2780
[6] = A2780, Table 5, read-out: A2780 cell concentration
[7] = Table 2, read-out: concentration at which Pin1 inhibitory activity was exhibited
[8] = concentration at which the Pin1 enzyme activity is inhibited, 2 hours at room temperature, fluorescence 490 nm/520 nm, read-out: Pin 1 inhibition

T1 sequence (Q13526 whole entry): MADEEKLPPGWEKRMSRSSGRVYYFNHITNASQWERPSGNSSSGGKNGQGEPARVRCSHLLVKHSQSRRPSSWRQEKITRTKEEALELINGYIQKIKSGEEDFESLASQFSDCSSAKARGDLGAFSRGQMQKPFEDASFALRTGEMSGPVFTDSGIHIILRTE

SMILES	IC50 [1, 3] [nM]	IC50 [1, 4] [nM]	IC50 [2, 5] [nM]	IC50 [2, 6] [nM]	IC50 (Pin1; [7]) [nM]	IC50 (Pin1; [8]) [nM]
C[C@H]1CN(CCCOc2ccc(S(=O)(=O)NCCCc3c[nH]c4ccc(Cl)cc34)cc2)CCN1 [Example 109, (S)—N-(3-(5-chloro-1H-indol-3-yl)propyl)-4-(3-(3-methylpiperazin-1-yl)propoxy)benzenesulfonamide]	< 1000	< 1000	1000 to 10000	< 10000	< 1000	< 1000
C[C@@H]1CN(CCCOc2ccc(S(=O)(=O)NCCCc3c[nH]c4ccc(Cl)cc34)cc2)C[C@H](C)N1 [Example 110, N-(3-(5-chloro-1H-indol-3-yl)propyl)-4-(3-((3S,5R)-3,5-dimethylpiperazin-1-yl)propoxy)benzenesulfonamide]	< 1000	< 1000	> 10000			1000 to 10000
C[C@H]1CN(CCCOc2ccc(S(=O)(=O)NCCCc3c[nH]c4ccc(Cl)cc34)cc2)CCN1C [Example 111, (S)—N-(3-(5-chloro-1H-indol-3-yl)propyl)-4-(3-(3,4-dimethylpiperazin-1-yl)propoxy)benzenesulfonamide]	< 1000	< 1000	> 10000			1000 to 10000
CN1CCN(CCCCc2ccc(S(=O)(=O)NCCCc3c[nH]c4ccc(Cl)cc34)cc2)CC1 [Example 112, N-(3-(5-chloro-1H-indol-3-yl)propyl)-4-(4-(4-methylpiperazin-1-yl)butyl)benzenesulfonamide]	< 1000	< 1000	> 10000		< 1000	< 1000
CN1CCN(c2cc(Oc3ccc(S(=O)(=O)NCCCc4c[nH]c5ccc(Cl)cc45)cc3)cc(N3CCN(C)CC3)c2)CC1 [Example 130, 4-(3,5-bis(4-methylpiperazine-1-yl)phenoxy)-N-(3-(5-chloro-1H-indole-3-yl)propyl)benzenesulfonamide]	1000 to 10000		1000 to 10000	< 10000	< 1000	< 1000
CN1CCN(c2ccnc(Nc3ccc(S(=O)(=O)NCCCc4c[nH]c5ccc(Cl)cc45)cc3)c2)CC1 [Example 133, N-(3-(5-chloro-1H-indol-3-yl)propyl)-4-((4-(4-methylpiperazin-1-yl)pyridin-2-yl)amino)benzenesulfonamide]	1000 to 10000		> 10000		< 1000	< 1000
O=S(=O)(NCCCc1c[nH]c2ccc(Cl)cc12)c1ccc(Nc2cc(N3CCNCC3)ccn2)cc1 [Example 134, N-(3-(5-chloro-1H-indol-3-yl)propyl)-4-((4-(piperazin-1-yl)pyridin-2-yl)amino)benzenesulfonamide]	< 1000	< 1000	> 10000		< 1000	< 1000
CN1CCN(c2cc(F)cc(Oc3ccc(S(=O)(=O)NCCCc4c[nH]c5ccc(Cl)cc45)cc3)c2)CC1 [Example 137, N-(3-(5-chloro-1H-indol-3-yl)propyl)-4-(3-fluoro-5-(4-methylpiperazin-1-yl)phenoxy)benzenesulfonamide]	1000 to 10000		> 10000		< 1000	< 1000
CN1CCN(c2cc(Br)cc(Oc3ccc(S(=O)(=O)NCCCc4c[nH]c5ccc(Cl)cc45)cc3)c2)CC1 [Example 138, N-(3-(5-chloro-1H-indole-3-yl)propyl)-4-(3-bromo-5-(4-methylpiperazine-1-yl)phenoxy)benzenesulfonamide]	1000 to 10000		> 10000		< 1000	< 1000
CS(=O)(=O)CCCOc1ccc(S(=O)(=O)NCCCc2c[nH]c3ccc(Cl)cc23)cc1 [Example 145, N-(3-(5-chloro-1H-indol-3-yl)propyl)-4-(3-(methylsulfonyl)propoxy)benzenesulfonamide]	> 10000		> 10000		< 1000	< 1000
O=S(=O)(NCCCc1c[nH]c2ccc(Cl)cc12)c1cnc(NCCCN2CCNCC2)s1 [Example 146, N-(3-(5-chloro-1H-indole-3-yl)propyl)-2-((3-(piperazine-1-yl)propyl)amino)thiazole-5-sulfonamide]	1000 to 10000		> 10000		< 1000	< 1000
Cc1[nH]c2ccc(Cl)cc2c1CCCNS(=O)(=O)c1ccc(OCCCN2CCN(C)CC2)cc1 [Example 147, N-(3-(5-chloro-2-methyl-1H-indole-3-yl)propyl)-4-(3-(4-methylpiperazine-1-yl)propoxy)benzenesulfonamide]	> 10000		> 10000		< 1000	< 1000
O=S(=O)(NCCCc1c[nH]c2ccc(Cl)cc12)c1ccc(CCCCn2ccnc2)cc1 [Example 148]	1000 to 10000		> 10000		< 1000	< 1000
CN1CCN(CCCOc2ccc(S(=O)(=O)Nc3ccccc3Cc3c[nH]c4ccc(Cl)cc34)cc2)CC1 [Example 149, N-(2-((5-chloro-1H-indole-3-yl)methyl)phenyl)-4-(3-(4-methylpiperazine-1-yl)propoxy)benzenesulfonamide]	> 10000		> 10000		< 1000	< 1000
O=S(=O)(Nc1ccccc1Cc1c[nH]c2ccc(Cl)cc12)c1ccc(OCCCN2CCNCC2)cc1 [Example 150, N-(2-((5-chloro-1H-indol-3-yl)methyl)phenyl)-4-(3-(piperazin-1-yl)propoxy)benzenesulfonamide]	< 1000	< 1000	> 10000		< 1000	< 1000
CC(CCc1c[nH]c2ccc(Cl)cc12)NS(=O)(=O)c1ccc(OCCCN2CCN(C)CC2)cc1 (centres unmarked) [Example 151]	< 1000	< 1000	> 10000		< 1000	< 1000
CC(CCc1c[nH]c2ccc(Cl)cc12)NS(=O)(=O)c1ccc(OCCCN2CCNCC2)cc1 (centres unmarked) [Example 152, N-(4-(5-chloro-1H-indol-3-yl)butan-2-yl)-4-(3-(piperazin-1-yl)propoxy)benzenesulfonamide]	< 1000	< 1000	> 10000		< 1000	< 1000
O=S(=O)(NCCCc1c[nH]c2ccc(Br)cc12)c1ccc(OCCCN2CCNCC2)cc1 [Example 153, N-(3-(5-bromo-1H-indole-3-yl)propyl)-4-(3-(piperazine-1-yl)propoxy)benzenesulfonamide]	< 1000	< 1000	1000 to 10000	< 10000	< 1000	< 1000
CN1CCN(CCCOc2ccc(S(=O)(=O)NCCCc3c[nH]c4ccc(Br)cc34)cc2)CC1 [Example 154, N-(3-(5-bromo-1H-indol-3-yl)propyl)-4-(3-(4-methylpiperazin-1-yl)propoxy)benzenesulfonamide]	< 1000	< 1000	1000 to 10000	< 10000	< 1000	< 1000
Cc1[nH]c2ccc(Cl)cc2c1CCCNS(=O)(=O)c1ccc(OCCCN2CCNCC2)cc1 [Example 157, N-(3-(5-chloro-2-methyl-1H-indol-3-yl)propyl)-4-(3-(piperazin-1-yl)propoxy)benzenesulfonamide]	< 1000	< 1000	> 10000			1000 to 10000
